# Source: ChEMBL document CHEMBL1201862, “PubChem BioAssay data set” (2004)
#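 How tested: cells in 96-well plates exposed to compound for 48 hours at five concentrations. Abbreviation: GI50, concentration required for 50% inhibition of growth.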 Active and inactive are the calls of the source. No stated cut-off is given here; in the data, active = GI50 up to about 1.1 µM and inactive = higher.
# Columns and labels:
# Assay in all cases: NCI anticancer screen, dose series, 48 h
# 786-0 = system: 786-0
# A498 = system: A498
# COLO 205 = system: COLO 205
# DLD-1 = system: DLD-1
# HL-60 = system: HL-60
# HOP-62 = system: HOP-62
# NCI-H226 = system: NCI-H226
# NCI-H460 = system: NCI-H460
# NCI-H522 = system: NCI-H522
# OVCAR-4 = system: OVCAR-4
# RPMI-8226 = system: RPMI-8226
# SK-MEL-5 = system: SK-MEL-5
# SK-OV-3 = system: SK-OV-3
# U-251 = system: U-251
# DU-145 = system: DU-145
# EKVX = system: EKVX
# HCC 2998 = system: HCC 2998
# PC-3 = system: PC-3
# BT-549 = system: BT-549
# Hs-578T = system: Hs-578T
Compound,GI50 (786-0),GI50 (A498),GI50 (COLO 205),GI50 (DLD-1),GI50 (HL-60),GI50 (HOP-62),GI50 (NCI-H226),GI50 (NCI-H460),GI50 (NCI-H522),GI50 (OVCAR-4),GI50 (RPMI-8226),GI50 (SK-MEL-5),GI50 (SK-OV-3),GI50 (U-251),GI50 (DU-145),GI50 (EKVX),GI50 (HCC 2998),GI50 (PC-3),GI50 (BT-549),GI50 (Hs-578T)
c1ccc2c(c1)[Se]c1ccccc1[Se]2,> 100 µM (inactive),> 100 µM (inactive),> 100 µM (inactive),53.8 µM (inactive),27.1 µM (inactive),> 100 µM (inactive),44.1 µM (inactive),38.3 µM (inactive),> 100 µM (inactive),23.4 µM (inactive),> 100 µM (inactive),> 100 µM (inactive),> 100 µM (inactive),37.5 µM (inactive),,,,,,
O=CN/C=C/c1cc(O)ccc1O [ERBSTATIN],14 µM (inactive),59.7 µM (inactive),11.9 µM (inactive),16 µM (inactive),5.14 µM (inactive),> 74.1 µM (inactive),44 µM (inactive),56.2 µM (inactive),4.6 µM (inactive),17.8 µM (inactive),26.3 µM (inactive),18.7 µM (inactive),> 62.4 µM (inactive),42.3 µM (inactive),30.1 µM (inactive),18.6 µM (inactive),> 100 µM (inactive),> 100 µM (inactive),,
COc1ccc(OCC(=O)O)c(C(=O)CCC(=O)O)c1,> 100 µM (inactive),> 100 µM (inactive),> 100 µM (inactive),> 100 µM (inactive),> 100 µM (inactive),> 10 µM (inactive),83.8 µM (inactive),> 100 µM (inactive),> 100 µM (inactive),> 100 µM (inactive),> 100 µM (inactive),> 100 µM (inactive),> 100 µM (inactive),> 100 µM (inactive),,> 100 µM (inactive),> 100 µM (inactive),,,
O=C1NC(=O)C(CCC(=O)c2ccc3ccccc3c2)C(=O)N1,> 100 µM (inactive),> 100 µM (inactive),> 100 µM (inactive),> 100 µM (inactive),> 100 µM (inactive),> 100 µM (inactive),> 100 µM (inactive),> 100 µM (inactive),20.1 µM (inactive),> 100 µM (inactive),,> 100 µM (inactive),> 100 µM (inactive),> 100 µM (inactive),,> 100 µM (inactive),> 100 µM (inactive),,,
COc1ccc(/C=C2/C(=O)N(C(=O)c3ccc(Cl)cc3)N=C2C)cc1OC,> 100 µM (inactive),> 100 µM (inactive),> 100 µM (inactive),> 100 µM (inactive),> 100 µM (inactive),> 100 µM (inactive),,> 100 µM (inactive),> 100 µM (inactive),> 100 µM (inactive),> 100 µM (inactive),> 100 µM (inactive),> 100 µM (inactive),> 100 µM (inactive),,> 100 µM (inactive),> 100 µM (inactive),,,
CC(C)c1cc2c(O)c(c1)Cc1cc(C(C)C)cc(c1O)Cc1cc(C(C)C)cc(c1O)Cc1cc(C(C)C)cc(c1O)C2,> 100 µM (inactive),> 100 µM (inactive),> 100 µM (inactive),> 100 µM (inactive),> 100 µM (inactive),> 100 µM (inactive),> 100 µM (inactive),> 100 µM (inactive),> 100 µM (inactive),> 100 µM (inactive),> 100 µM (inactive),> 100 µM (inactive),> 100 µM (inactive),> 100 µM (inactive),,> 100 µM (inactive),,,,
CC(=O)Nc1cc(N(CCOS(C)(=O)=O)CCOS(C)(=O)=O)ccc1N=O,> 100 µM (inactive),,> 100 µM (inactive),> 100 µM (inactive),> 100 µM (inactive),> 100 µM (inactive),> 100 µM (inactive),> 100 µM (inactive),> 100 µM (inactive),> 100 µM (inactive),> 100 µM (inactive),> 100 µM (inactive),,> 100 µM (inactive),,,> 100 µM (inactive),,,
CC(=O)O.CN1CCN(CN2C(=O)C3C4C=CC(C3C2=O)C2C3C(=O)N(CN5CCN(C)CC5)C(=O)C3C42)CC1 (stereo unspecified),19.9 µM (inactive),> 55.3 µM (inactive),19 µM (inactive),19.1 µM (inactive),,> 50 µM (inactive),,16.3 µM (inactive),18.6 µM (inactive),21.4 µM (inactive),22.2 µM (inactive),23.4 µM (inactive),,19 µM (inactive),25.1 µM (inactive),,22.2 µM (inactive),33.7 µM (inactive),25.5 µM (inactive),> 100 µM (inactive)
NCCCC(N)(C(=O)O)C(F)F (stereo unspecified) [EFLORNITHINE],> 100 µM (inactive),> 5000 µM (inactive),> 5000 µM (inactive),> 3160 µM (inactive),> 3910 µM (inactive),> 5000 µM (inactive),> 5000 µM (inactive),933 µM (inactive),> 5000 µM (inactive),> 5000 µM (inactive),> 5000 µM (inactive),> 5000 µM (inactive),> 5000 µM (inactive),> 5000 µM (inactive),,,> 5000 µM (inactive),,,
COC(=O)C(=O)C(C(=O)OC)C(=O)C(=O)Nc1c(C)cccc1C (stereo unspecified),> 100 µM (inactive),> 100 µM (inactive),> 100 µM (inactive),> 100 µM (inactive),> 100 µM (inactive),> 100 µM (inactive),> 100 µM (inactive),> 100 µM (inactive),97.5 µM (inactive),> 100 µM (inactive),> 100 µM (inactive),> 100 µM (inactive),> 100 µM (inactive),> 100 µM (inactive),,> 100 µM (inactive),> 100 µM (inactive),,,
CC(C)C1(O)C(c2ccccc2)=C(c2ccccc2)C(c2ccccc2)=C1c1ccccc1,5.78 µM (inactive),15.2 µM (inactive),10.1 µM (inactive),5.87 µM (inactive),2.65 µM (inactive),12.1 µM (inactive),7.26 µM (inactive),6.95 µM (inactive),4.35 µM (inactive),5.73 µM (inactive),2.28 µM (inactive),10.6 µM (inactive),15.2 µM (inactive),5.11 µM (inactive),,5.28 µM (inactive),8.69 µM (inactive),,,
Cc1ccc(C(=O)/C=C/c2ccccc2O)c(C)c1,> 100 µM (inactive),> 100 µM (inactive),> 100 µM (inactive),> 100 µM (inactive),> 100 µM (inactive),> 100 µM (inactive),> 100 µM (inactive),> 100 µM (inactive),> 100 µM (inactive),> 100 µM (inactive),18.7 µM (inactive),> 100 µM (inactive),> 100 µM (inactive),> 100 µM (inactive),,> 100 µM (inactive),> 100 µM (inactive),,,
O=C(CCn1[nH]c(=O)c(Cl)c(Cl)c1=O)NO,> 100 µM (inactive),> 100 µM (inactive),> 100 µM (inactive),> 100 µM (inactive),> 100 µM (inactive),> 100 µM (inactive),> 100 µM (inactive),> 100 µM (inactive),> 100 µM (inactive),> 100 µM (inactive),> 100 µM (inactive),> 100 µM (inactive),> 100 µM (inactive),> 100 µM (inactive),,> 100 µM (inactive),> 100 µM (inactive),,,
O=C(CNc1ccc2c(=S)c3ccccc3[nH]c2c1)Nc1ccccc1-c1ccccc1NC(=O)CNc1ccc2c(=S)c3ccccc3[nH]c2c1,13.1 µM (inactive),25.2 µM (inactive),11.9 µM (inactive),11 µM (inactive),2.99 µM (inactive),24.3 µM (inactive),26 µM (inactive),17.1 µM (inactive),6.38 µM (inactive),3.94 µM (inactive),8.75 µM (inactive),15.2 µM (inactive),26.3 µM (inactive),19.6 µM (inactive),18.3 µM (inactive),24.4 µM (inactive),15.1 µM (inactive),19.4 µM (inactive),23.8 µM (inactive),29.2 µM (inactive)
O=C1Nc2ccccc2C1(O)C/C(=N/O)c1ccc2ccccc2c1 (stereo unspecified),> 100 µM (inactive),> 100 µM (inactive),> 100 µM (inactive),> 100 µM (inactive),41.8 µM (inactive),> 100 µM (inactive),> 100 µM (inactive),> 100 µM (inactive),> 100 µM (inactive),> 100 µM (inactive),87.1 µM (inactive),,49.1 µM (inactive),86.5 µM (inactive),,> 100 µM (inactive),> 100 µM (inactive),,,
COc1cccc(SSc2cccc(OC)c2C(=O)O)c1C(=O)O,> 100 µM (inactive),> 100 µM (inactive),> 100 µM (inactive),> 100 µM (inactive),> 100 µM (inactive),> 100 µM (inactive),> 100 µM (inactive),> 100 µM (inactive),> 100 µM (inactive),> 100 µM (inactive),> 100 µM (inactive),> 100 µM (inactive),> 100 µM (inactive),> 100 µM (inactive),,> 100 µM (inactive),,,,
CCN(CC)CCNc1c2ccccc2nc2cccc([N+](=O)[O-])c12,0.0136 µM (active),0.00782 µM (active),0.00461 µM (active),0.0225 µM (active),0.046 µM (active),0.00638 µM (active),0.0179 µM (active),0.00622 µM (active),0.00434 µM (active),0.0125 µM (active),0.00659 µM (active),0.00902 µM (active),0.0343 µM (active),0.0123 µM (active),0.0031 µM (active),0.0177 µM (active),0.0151 µM (active),0.00301 µM (active),0.005 µM (active),0.017 µM (active)
